Results as given in patent US10738041B2, “Ferroportin inhibitors” (Vifor (International) AG, priority 2015, dated 2020).

Target: T1, ferroportin (Fpn) (Mus musculus, UniProt Q9JHI9)
T1 construct: host or cells: J774 mouse macrophage cell line, Fe(III)-NTA induced
T1 sequence (Q9JHI9 1-570): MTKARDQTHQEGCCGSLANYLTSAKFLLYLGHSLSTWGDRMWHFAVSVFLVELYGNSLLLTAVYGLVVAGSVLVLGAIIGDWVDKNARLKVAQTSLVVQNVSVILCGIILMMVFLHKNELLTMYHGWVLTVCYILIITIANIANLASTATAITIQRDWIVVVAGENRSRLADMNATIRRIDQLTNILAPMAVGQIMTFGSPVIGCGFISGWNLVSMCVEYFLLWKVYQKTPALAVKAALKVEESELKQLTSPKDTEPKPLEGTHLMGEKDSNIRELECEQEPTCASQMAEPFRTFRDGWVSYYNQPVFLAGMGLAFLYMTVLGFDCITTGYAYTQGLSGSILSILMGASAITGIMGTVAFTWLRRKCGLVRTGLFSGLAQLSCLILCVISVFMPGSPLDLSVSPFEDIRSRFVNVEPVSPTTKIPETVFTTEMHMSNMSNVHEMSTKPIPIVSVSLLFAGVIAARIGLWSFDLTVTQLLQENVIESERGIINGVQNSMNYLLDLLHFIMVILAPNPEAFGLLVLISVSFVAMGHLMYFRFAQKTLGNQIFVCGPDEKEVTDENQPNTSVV
Test: Hepcidin Internalization Assay (J774)
Format: cell-based
Conditions: average of multiple measurements; inhibition of TMR-hepcidin (25 nM) internalization into J774 cells; read-out: J774 IC50
Source text: This cellular assay allows quantification of the binding of hepcidin to ferroportin (Fpn) through microscopic detection of internalization of a fluorescently labeled hepcidin into J774 cells. […] Binding of hepcidin to Fpn triggers internalization and degradation of both hepcidin and Fpn. However, the TMR (6-carboxytetramethylrhodamine) fluorophore attached to hepcidin remains associated with the cell after degradation of the hepcidin peptide backbone. Therefore, microscopic detection of ceH associated TMR fluorescence is a measure of hepcidin binding to Fpn and internalization of hepcidin and Fpn. If TMR-hepcidin is prevented from binding to Fpn, cellular TMR fluorescence remains low (Dürrenberger et al, 2013). The effect of small molecular weight Fpn inhibitor compounds in this assay was evaluated in vitro as described below.
J774 cells, harvested from ca. 80% confluent cultures, were plated at 8×10^5 cells/ml in complete medium (DMEM, 10% FBS, 1% Penicillin-Streptomycin) containing 200 μM Fe(III)NTA (nitrilotriacetic acid), 100 μl per well of 96 well MicroClear plates (Greiner; Cat. 655090) and grown at 37° C. with 5% CO2. After overnight incubation, cells were washed 3 times with pre-warmed DMEM w/o phenol red, 30 μl/well of DMEM w/o phenol red was added after the final wash and 10 μl/well of dilution series of test compounds were added in triplicates. […] Cells were incubated in a total volume of 50 μl at 37° C. with 5% CO2 for 2 hours, then Hoechst 33342 dye was added to a final concentration of 0.5 μg/ml to stain nuclei and further incubated for 10 min. at 37° C. with 5% CO2. Cells were washed 3 times with PBS and fixed in 100 μl of 4% paraformaldehyde in PBS for 15 min. at room temperature. After removal of the paraformaldehyde solution, cells were washed 3 times with PBS leaving 100 μl per well and the plates were sealed with foil plate seal. TMR (530-550 nm excitation/575-625 nm emission/400 ms exposure time) and Hoechst 33342 (360-370 nm excitation/420-460 nm emission/10 ms exposure time) fluorescence images were acquired using a ScanR plate imager (Olympus) with a 20× high NA objective. Four pictures were acquired per well and fluorescence channel covering ca. 1500 cells per well. The acquired image data was analysed with the ScanR image analysis software. Image analysis included detection of nuclei (Hoechst 33342 fluorescence), identification of cell-associated regions, application of a virtual channel and thresholding for rolling-ball-type background reduction, followed by application of the Sum(Mean) algorithm to measure the TMR fluorescence associated with cells as a quantitative measure for internalized TMR-hepcidin. IC50 values were calculated with the Sum(Mean) raw data using “log(inhibitor) vs. response” curve fitting of Prism 5 software (GraphPad Software Inc., version 5.02).

Row | Compound | IC50 [nM]
1 | CC(=O)N(CCc1nc(C(=O)NCc2ccccc2)cs1)Cc1nccn1C [Example 4] | 15400
2 | O=C(NC1CCc2cccnc21)c1cnn(CCNCCc2nc3ccccc3[nH]2)c1 (stereo not drawn) [Example 131] | 90
3 | O=C(NCc1ccccc1)c1csc(CCNCc2nccs2)n1 [Example 3] | 16600
4 | O=C(NCc1ccccn1)c1nc(CCNCCc2nc3ccccc3[nH]2)sc1Cl [Example 184] | 63
5 | O=C(NCc1ncccc1F)c1cn(CCNCCc2nc3ccccc3[nH]2)nc1C(F)(F)F [Example 162] | 297
6 | O=C(c1csc(CCNCc2nc3ccccc3[nH]2)n1)N1CCOCC1 [Example 18] | 8700
7 | O=C(NCc1ncccc1F)c1csc(CCNCc2nc3ccc(F)cc3[nH]2)n1 [Example 114] | 118
8 | O=C(NCc1ccccn1)c1nc(CCN2CCc3nc4ccccc4n3C2)sc1Cl [Example 189] | 60
9 | O=C(Cc1nc2ccccc2[nH]1)NCCc1nc(C(=O)NCc2ncccc2F)cs1 [Example 113] | > 25000
10 | O=C(NCc1ncccc1F)c1csc(CCNCc2nc3ccccc3o2)n1 [Example 115] | > 25000
11 | O=C(NCc1ncccc1F)c1coc(CCNCCc2nc3c(F)ccc(F)c3[nH]2)n1 [Example 251] | 62
12 | O=C(NCc1ccccc1)c1csc(CCNCc2n[nH]c3ccccc23)n1 [Example 5] | 10400
13 | O=C(NCc1cccnn1)c1coc(C2CN(CCc3nc4ccccc4[nH]3)C2)n1 [Example 244] | 90
14 | O=C(NCc1ncccc1F)c1csc(CCN(CCc2nc3ccccc3[nH]2)CC2CC2)n1 [Example 148] | 2080
15 | O=C(NCc1ncccc1F)c1coc(CCNCCc2nc3c(F)c(F)ccc3[nH]2)n1 [Example 257] | 35
16 | O=C(NCc1ncccc1F)c1nc(C2CN(CCc3nc4ccccc4[nH]3)C2)sc1Cl [Example 209] | 379
17 | Cc1cnc(CNC(=O)c2nc(CCNCCc3nc4ccccc4[nH]3)sc2Cl)nc1 [Example 182] | 989
18 | O=C(NCc1ccccn1)c1coc(CCNCCc2nc3c(F)cccc3[nH]2)n1 [Example 236] | 150
19 | Cn1nc(CNCCc2nc3ccccc3[nH]2)cc1C(=O)NCc1ncccc1F [Example 220] | 290

Row | Compound | IC50 [nM]
20 | Cc1sc(CCNCCc2nc3ccccc3[nH]2)nc1C(=O)NCc1ncccn1 [Example 188] | 1160
21 | O=C(NCc1ccccn1)c1nc(CCNCc2nc3ccccc3[nH]2)sc1Cl [Example 160] | 256
22 | O=C(NCc1ncccc1F)c1coc(CCNCCc2nc3c(F)ccc(Cl)c3[nH]2)n1 [Example 247] | 82
23 | O=C(NCc1ncccc1F)c1coc(CCNCCc2nc3c(C(F)(F)F)cccc3[nH]2)n1 [Example 256] | 81
24 | O=C(NCc1ncccc1Cl)c1coc(CCNCCc2nc3ccccc3[nH]2)n1 [Example 173] | 6
25 | NCCCN(CCc1nc2ccccc2[nH]1)CCc1nc(C(=O)NCc2ncccc2F)cs1 [Example 163] | 828
26 | O=C(NCc1ncccc1Cl)c1csc(C2CN(CCc3nc4ccccc4[nH]3)C2)n1 [Example 195] | 210
27 | O=C(NCc1ccccc1)c1csc(CCNC(=O)c2nc3ccccc3[nH]2)n1 [Example 7] | 14200
28 | O=C(NCc1ncccc1F)c1csc(CCNCc2nc3c(F)cccc3[nH]2)n1 [Example 274] | 145
29 | O=C(NCc1ncccc1F)c1coc(CCNCc2nc3c(F)cccc3[nH]2)n1 [Example 253] | 226
30 | O=C(NC1CCc2cccnc21)c1cnn(C2CN(CCc3nc4ccccc4[nH]3)C2)c1 (stereo not drawn) [Example 191] | 330
31 | O=C(NCc1ncccc1F)c1nc(C2(O)CN(CCc3nc4ccccc4[nH]3)C2)sc1Cl [Example 211] | 747
32 | O=C(NCc1ncccc1F)c1nc(CNCCc2nc3ccccc3[nH]2)cs1 [Example 205] | 370
33 | O=C(NCc1ncccc1F)c1coc(CNCCc2nc3ccccc3[nH]2)n1 [Example 206] | 180
34 | Cc1sc(CCNCCc2nc3ccccc3[nH]2)nc1C(=O)NCc1ncccc1F [Example 165] | 100
35 | O=C(NCc1ccccc1)c1csc(CCNC(=O)c2ncc[nH]2)n1 [Example 8] | 42900
36 | NC(=O)c1csc(CCNCc2nc3ccccc3[nH]2)n1 [compound 23] | 15800
37 | O=C(NCc1ncc(F)cc1F)c1csc(CCNCCc2nc3cc(F)ccc3[nH]2)n1 [Example 123] | 170
38 | O=C(NCc1ncccc1F)c1cnn(C2CCN(CCc3nc4ccccc4[nH]3)CC2)c1 [Example 198] | 27000

Row | Compound | IC50 [nM]
39 | CC(C)(Cc1nc(C(=O)NCc2ncccc2F)cs1)NCc1nc2ccccc2[nH]1 [Example 231] | 5200
40 | O=C(NCc1ncccc1F)c1coc(C2CN(CCc3nc4c(C(F)(F)F)cccc4[nH]3)C2)n1 [Example 273] | 228
41 | O=C(NCc1ccccn1)c1coc(C2CN(CCc3nc4c(F)cccc4[nH]3)C2)n1 [Example 258] | 152
42 | O=C(NCc1ncccc1F)c1cnn(CCNCc2nc3ccccc3[nH]2)c1 [Example 145] | 385
43 | O=C(NCc1cccnn1)c1nc(CCNCCc2nc3ccccc3[nH]2)sc1Cl [Example 183] | 131
44 | Cc1nn(CCNCc2nc3ccccc3[nH]2)c(C)c1C(=O)NCc1ncccc1F [Example 142] | 21600
45 | O=C(NCc1ncccc1F)c1cn(CCNCc2nc3ccccc3[nH]2)nc1C(F)(F)F [Example 156] | 2460
46 | CCCCN(CCc1nc2ccccc2[nH]1)CCc1nc(C(=O)NCc2ncccc2F)cs1 [Example 157] | 717
47 | O=C(NCc1ncccc1F)c1nc(CCNCCc2nc3ccccc3[nH]2)sc1C(F)(F)F [Example 186] | 300
48 | O=C(NCc1ncccc1F)c1nc(CCNCc2nc3ccccc3[nH]2)sc1C(F)(F)F [Example 176] | 957
49 | O=C(NCc1ncccn1)c1csc(CCNCCc2nc3ccccc3[nH]2)n1 [Example 129] | 353
50 | O=C(NCc1ncccn1)c1nc(CCNCc2nc3ccccc3[nH]2)sc1Cl [Example 175] | 1020
51 | Cc1cnc(CNC(=O)c2csc(CCNCCc3nc4ccccc4[nH]3)n2)nc1 [Example 155] | 347
52 | Cc1ccc(CNC(=O)c2csc(CCNCCc3nc4ccccc4[nH]3)n2)nn1 [Example 174] | 141
53 | Cc1sc(CCNCc2nc3ccccc3[nH]2)nc1C(=O)NCc1ncccc1F [Example 164] | 343
54 | O=C(NCc1ccccn1)c1cnn(CCNCCc2nc3ccccc3[nH]2)c1 [Example 109] | 76
55 | COc1cccc2[nH]c(CCNCCc3nc(C(=O)NCc4ncccc4F)co3)nc12 [Example 227] | 130
56 | O=C(NCc1ncccc1F)[C@@H]1CCN(CCNCc2nc3ccccc3[nH]2)C1 [compound 202] | 5000
57 | CC(C)(CNCCc1nc(C(=O)NCc2ncccc2F)cs1)c1nc2ccccc2[nH]1 [Example 199] | 780
